Test results from patent US4151283A, “6-Methyl-and 1,6-dimethyl-8β-carbobenzyloxy-aminomethyl-10α-ergoline as inhibitors of prolactin secretion” (Societa' Farmaceutici Italia S.p.A., priority 1977, dated 1979).

Tests used:
[1] = system: nidation (implantation sites); test: Nidation inhibition in rats (anti-nidation activity); assay type: in vivo, rat (Sprague-Dowley strain); conditions: Rattus norvegicus, methane-sulphonic salt, given on 3rd day, approximate (.congruent.)
Description: Adult female rats, of the Sprague-Dowley strain, in proestrus were mated with fertile males and their vaginal smears were examined the next morning.
The presence of spermatozoa was considered evidence of impregnation and onset of pregnancy (day 1).
The compounds were administered orally or intraperitoneally as methane-sulphonic salts to groups of six to eight rats on the 3rd day.
On the 14th day the animals were sacrificed and the uterus was examined for the presence of implantation sites.
The absence of implantation sites was the criterion of activity.
Several doses were tested for the ED50 evaluation.

lactation [2] = test: Lactation inhibition in rats (anti-lactation activity); assay type: in vivo; conditions: Rattus norvegicus, po, methane-sulfonic salt, 6th and 7th days, approximate (.congruent.); read-out: ED50, lactation inhibition (50% reduction of gain in weight of the litters)
Description: Adult pregnant female rats were individually caged about 6 days before parturition. The day after parturition (day 1), the number of pups was adjusted to eight. The gain in weight of the litters was measured daily.
The test compounds as methane-sulfonic salts were administered orally to groups of eight mother rats on the 6th and 7th days immediately after the weighing of the litters. The control mothers were treated with the vehicle alone.
The percentage of lactation inhibition was calculated from the mean gain in weight of the litters on the 7th and 8th days in comparison with the results for the 5th and 6th days.
No lactation inhibition was present on the 7th and 8th days in the vehicle-treated (control) group.
The doses capable of reducing to 50% the gain in weight of the litters (ED50) are reported below in Table II.

Emetic activity in dogs = assay type: in vivo, dog (male beagle); conditions: dog, in vivo, methane-sulphonic salt, approximate (.congruent.), read-out: ED50, emetic activity; for TD50 at 2 h: iv, observed 2 hours; for TD50 at 6 h: po, observed 6 hours
Description: (§1) The emetic activity of the compounds was examined by intravenous and oral administration to male beagle dogs weighing 15-20 kg. The compounds were administered as the methane-sulphonic salts. […] Five to six animals per dose were employed for the ED50 evaluation.

emesis = test: Emetic activity in dogs; assay type: in vivo, dog (male beagle); conditions: dogs, both routes of administration (Table III), in words
Description: as §1

prolactin (PRL) release [3] = conditions: cited from earlier work
[4] = system: nidation (implantation sites); conditions: in rats, literature (Fluckiger and Wagner 1968), in words; cited from earlier work
prolactin = conditions: literature (Brooks and Welsch 1974), in words; cited from earlier work
lactation [5] = conditions: in rats, literature (Fluckiger and Wagner 1968), in words; cited from earlier work
puerperal lactation [6] = conditions: comparison drug, no own test described; cited from earlier work
puerperal lactation [7] = test: Inhibition of puerperal lactation in women (clinical evaluation); assay type: in vivo, human (puerperal women)
Description: The invention concerns a novel method of inhibiting lactation in puerperal women by administering metergoline.
Metergoline was administered at a dose of 8 mg/day (4 mg at 0.800 and 4 mg at 2000) to these women: 10 women were treated with a placebo.

prolactin (PRL) release [8] = conditions: cited from earlier work; remark: listed apart in the source

SMILES	ED50 ([1]; po) [mg/kg]	ED50 (lactation [2]) [mg/kg]	TD50 at 2 h (Emetic activity in dogs) [mg/kg]	TD50 at 6 h (Emetic activity in dogs) [mg/kg]	emetic tolerability versus reference standard III (emesis)	ED50 ([1]; ip) [mg/kg]	also measured
CN1C[C@H](CNC(=O)OCc2ccccc2)C[C@@H]2c3cccc4[nH]cc(c34)C[C@H]21 [1-Demethyl-metergoline, 6-Methyl-8β-carbobenzyloxy-aminomethyl-10α-ergoline]	4 to 8	4 to 8	0.05 to 0.1	0.2 to 0.4	clearly better tolerated than the reference standard III		
N[C@@H](Cc1c[nH]c2ccc(O)cc12)C(=O)O [5 hydroxytryptophan]							effect on PRL release in man (prolactin (PRL) release [3]): stimulates PRL release
CC(C)C[C@H]1C(=O)N2CCC[C@H]2[C@]2(O)O[C@](NC(=O)[C@@H]3C=C4c5cccc6[nH]c(Br)c(c56)C[C@H]4N(C)C3)(C(C)C)C(=O)N12 [Bromocriptine, 2-Br-α-ergocriptine, reference compound]	8 to 16	8 to 16	~0.007	< 0.03		16 to 32	anti-nidation activity [4]: well known both for its anti-nidation and anti-lactation activity in rats; anti-prolactin activity (prolactin): anti-prolactin activity; anti-lactation activity (lactation [5]): well known both for its anti-nidation and anti-lactation activity in rats; treatment period required (puerperal lactation [6]): 14 days
CN1C[C@H](CNC(=O)OCc2ccccc2)C[C@@H]2c3cccc4c3c(cn4C)C[C@H]21 [Metergoline, 1,6-Dimethyl-8β-carbobenzyloxy-aminomethyl-10α-ergoline]	~25	12.5 to 25	> 8	4 to 8	clearly better tolerated than the reference standard III	16 to 32	women in whom five days of treatment prevented or suppressed lactation (puerperal lactation [7]; 8 mg/day (4 mg twice), 5 days): 69 women; remaining women in whom a second course definitely inhibited every sign of mammary activity (puerperal lactation [7]; 8 mg/day, second course of 5 additional days): 9 women; cases in which the necessary treatment period is 5 days (puerperal lactation [7]; 5 days of treatment): 88.5%; treatment period necessary (puerperal lactation [7]; in 88.5% of cases): 5 days; tolerability / side-effects (puerperal lactation [7]; women, 8 mg/day, in words): perfectly tolerated and devoid of any side-effect
CC[C@@H](CO)NC(=O)[C@@H]1C=C2c3cccc4c3c(cn4C)C[C@H]2N(C)C1 [methysergide]							effect on 5-hydroxytryptophan-stimulated PRL release (prolactin (PRL) release [3]; in man): partially inhibited
NCCc1c[nH]c2ccc(O)cc12 [serotonin (5HT), 5-hydroxytryptamine]							effect on PRL release in animals (prolactin (PRL) release [8]): stimulates prolactin (PRL) release
